Experimental findings from patent publication US9193721B2, “Fused derivatives as PI3Kδ inhibitors” (Incyte Holdings Corporation, priority 2010, dated 2015) are described below.

For one experiment, the target named is T1, PI3Kδ (p110δ/p85α) (Homo sapiens, UniProt O00329).
T1 construct: purchased Millipore (Bedford, Mass.)
As to the kind of experiment: PI3Kδ scintillation proximity assay (assay A). The format is biochemical. Conditions: 20 μM PIP2, 20 μM ATP, 4 nM PI3Kδ, 210 minutes, room temperature. The method, then: PI3Kδ Scintillation Proximity Assay
[γ-33P] ATP (10 mCi/mL) was purchased from Perkin-Elmer (Waltham, Mass.). […] PI3Kδ (p110δ/p85α) was purchased from Millipore (Bedford, Mass.). ATP, MgCl2, DTT, EDTA, MOPS and CHAPS were purchased from Sigma-Aldrich (St. Louis, Mo.). Wheat Germ Agglutinin (WGA) YSi SPA Scintillation Beads was purchased from GE healthcare life sciences (Piscataway, N.J.).
The kinase reaction was conducted in polystyrene 384-well matrix white plate from Thermo Fisher Scientific in a final volume of 25 μL. Inhibitors were first diluted serially in DMSO and added to the plate wells before the addition of other reaction components. The final concentration of DMSO in the assay was 0.5%. The PI3K assays were carried out at room temperature in 20 mM MOPS, pH 6.7, 10 mM MgCl2, 5 mM DTT and CHAPS 0.03%. Reactions were initiated by the addition of ATP, the final reaction mixture consisted of 20 μM PIP2, 20 μM ATP, 0.2 μCi [γ-^33P] ATP, 4 nM PI3Kδ. Reactions were incubated for 210 minutes and terminated by the addition of 40 μL SPA beads suspended in quench buffer: 150 mM potassium phosphate pH 8.0, 20% glycerol. 25 mM EDTA, 400 μM ATP. The final concentration of SPA beads is 1.0 mg/mL. After the plate sealing, plates were shaken overnight at room temperature and centrifuged at 1800 rpm for 10 minutes, the radioactivity of the product was determined by scintillation counting on Topcount (Perkin-Elmer). IC50 determination was performed by fitting the curve of percent control activity versus the log of the inhibitor concentration using the GraphPad Prism 3.0 software.
On the technique in general: SPA uses beads or plates that emit light when radiolabelled molecules are held near them.

Experiment [1] has as its system Pfeiffer cell line (diffuse large B cell lymphoma). The experiment can be described thus: Pfeiffer cell proliferation assay. The format is cell-based. Conditions: Homo sapiens, [3H]-thymidine incorporation after 3-4 days plus 12 hours. The method, then: Pfeiffer Cell Proliferation Assay
Pfeiffer cell line (diffuse large B cell lymphoma) was purchased from ATCC (Manassas, Va.) and maintained in the culture medium recommended (RPMI and 10% FBS). To measure the anti-proliferation activity of the compounds, the Pfeiffer cells were plated with the culture medium (2×10^3 cells/well/per 200 μl) into 96-well ultra-low binding plates (Corning, Corning, N.Y.), in the presence or absence of a concentration range of test compounds. After 3-4 days, [^3H]-thymidine (1 μCi/well) (PerkinElmer, Boston, Mass.) in PBS was then added to the cell culture for an additional 12 hours before the incorporated radioactivity was separated by filtration with water through GF/B filters (Packard Bioscience, Meridenj, Conn.) and measured by liquid scintillation counting with a TopCount (Packard Bioscience).
For orientation: Uptake of a labelled nucleoside into DNA is a usual measure of proliferation.

Structures are written as SMILES. pIC50: −log10 of the molar value.

T1 sequence (O00329 whole entry): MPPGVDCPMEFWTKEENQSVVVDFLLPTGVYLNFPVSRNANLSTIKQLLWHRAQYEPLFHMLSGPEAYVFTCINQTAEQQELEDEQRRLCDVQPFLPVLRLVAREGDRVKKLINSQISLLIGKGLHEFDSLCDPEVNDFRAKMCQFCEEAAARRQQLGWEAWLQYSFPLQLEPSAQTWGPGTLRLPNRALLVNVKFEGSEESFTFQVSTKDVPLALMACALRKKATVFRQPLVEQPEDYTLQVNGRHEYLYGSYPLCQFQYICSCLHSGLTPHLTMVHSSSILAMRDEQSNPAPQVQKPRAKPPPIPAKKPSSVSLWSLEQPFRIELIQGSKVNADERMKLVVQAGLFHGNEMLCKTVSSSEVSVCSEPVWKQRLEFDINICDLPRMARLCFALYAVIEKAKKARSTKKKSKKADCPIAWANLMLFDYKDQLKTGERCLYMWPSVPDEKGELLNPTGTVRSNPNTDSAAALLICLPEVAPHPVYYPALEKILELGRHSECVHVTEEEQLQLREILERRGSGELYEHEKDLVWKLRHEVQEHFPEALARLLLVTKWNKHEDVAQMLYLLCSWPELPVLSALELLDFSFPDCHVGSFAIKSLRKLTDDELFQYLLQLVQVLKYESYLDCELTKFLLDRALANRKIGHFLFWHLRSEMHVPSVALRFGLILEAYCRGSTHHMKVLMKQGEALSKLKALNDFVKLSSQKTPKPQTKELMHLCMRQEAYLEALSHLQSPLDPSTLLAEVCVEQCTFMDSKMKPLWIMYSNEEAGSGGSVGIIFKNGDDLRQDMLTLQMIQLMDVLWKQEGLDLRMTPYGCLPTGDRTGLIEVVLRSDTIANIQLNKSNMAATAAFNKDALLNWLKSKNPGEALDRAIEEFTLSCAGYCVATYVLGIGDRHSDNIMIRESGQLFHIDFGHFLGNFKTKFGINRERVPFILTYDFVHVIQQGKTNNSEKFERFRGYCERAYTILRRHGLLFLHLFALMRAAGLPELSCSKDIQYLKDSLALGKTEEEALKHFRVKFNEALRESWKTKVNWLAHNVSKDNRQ
T1 sequence (P27986 whole entry partner): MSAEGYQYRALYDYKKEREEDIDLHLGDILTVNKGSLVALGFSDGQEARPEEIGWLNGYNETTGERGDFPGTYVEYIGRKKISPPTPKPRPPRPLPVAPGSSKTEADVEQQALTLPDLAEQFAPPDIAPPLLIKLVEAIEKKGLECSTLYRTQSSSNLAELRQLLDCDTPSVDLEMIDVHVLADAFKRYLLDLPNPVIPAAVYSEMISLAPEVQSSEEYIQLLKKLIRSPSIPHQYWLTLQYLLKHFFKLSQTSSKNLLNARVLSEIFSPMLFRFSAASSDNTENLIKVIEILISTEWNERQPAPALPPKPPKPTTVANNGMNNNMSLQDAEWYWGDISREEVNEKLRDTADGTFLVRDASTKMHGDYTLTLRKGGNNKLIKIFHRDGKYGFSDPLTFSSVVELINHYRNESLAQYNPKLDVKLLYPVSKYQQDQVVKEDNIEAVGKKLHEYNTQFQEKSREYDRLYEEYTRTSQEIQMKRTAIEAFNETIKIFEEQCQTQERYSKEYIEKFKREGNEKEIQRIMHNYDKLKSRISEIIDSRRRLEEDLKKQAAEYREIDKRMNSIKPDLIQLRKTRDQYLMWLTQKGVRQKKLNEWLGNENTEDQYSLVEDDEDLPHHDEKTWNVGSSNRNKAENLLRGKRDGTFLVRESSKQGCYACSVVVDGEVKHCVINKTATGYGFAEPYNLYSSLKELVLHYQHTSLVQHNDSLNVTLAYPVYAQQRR

As a reminder, the pIC50 is the negative decadic logarithm of the IC50, by convention in mol/L. In the case of `CCN(CC)c1c(C(C)Nc2ncnc3[nH]cnc23)cc(Cl)c2cnc(C)n12` (stereo not shown) [Example 25, N-{1-[8-Chloro-5-(diethylamino)-3-methylimidazo[1,5-a]pyridin-6-yl]ethyl}-9H-purin-6-amine], the values for the pIC50 (at PI3Kδ (p110δ/p85α); in experiment [1]) were greater than 7.30 and 6.00 to 6.30, respectively.

With `CC(Nc1ncnc2[nH]cnc12)c1cc(Cl)c2ccnn2c1-c1cccc(F)c1` (stereo not shown) [Example 26, N-{1-[4-chloro-7-(3-fluorophenyl)pyrazolo[1,5-a]pyridin-6-yl]ethyl}-9H-purin-6-amine], the pIC50 on PI3Kδ (p110δ/p85α) was greater than 7.30; in experiment [1], no less than 7.00.

In the case of `CC(Nc1ncnc2[nH]cnc12)c1cc(F)c2ccnn2c1-c1cccc(F)c1` (stereo not shown) [Example 27, N-{1-[4-fluoro-7-(3-fluorophenyl)pyrazolo[1,5-a]pyridin-6-yl]ethyl}-9H-purin-6-amine], the pIC50 at PI3Kδ (p110δ/p85α) is greater than 7.30; in experiment [1], no less than 7.00.

In the case of `COc1cccc(-c2c(C(C)Nc3ncnc4[nH]cnc34)cc(Cl)c3ccnn23)c1` (stereo not shown) [Example 28, N-{1-[4-chloro-7-(3-methoxyphenyl)pyrazolo[1,5-a]pyridin-6-yl]ethyl}-9H-purin-6-amine], the negative-log IC50 (pIC50) is greater than 7.30 against PI3Kδ (p110δ/p85α) and no less than 7.00 in experiment [1].

Turning to `CC(Nc1ncnc2[nH]cnc12)c1cc(F)c2cncn2c1-c1cccc(F)c1` (stereo not shown) [Example 29, N-{1-[8-Fluoro-5-(3-fluorophenyl)imidazo[1,5-a]pyridin-6-yl]ethyl}-9H-purin-6-amine], the pIC50 is greater than 7.30 on PI3Kδ (p110δ/p85α) and 6.00 to 6.30 in experiment [1].

In the case of `CC(=O)N1CCN(c2c(C(C)Nc3ncnc4[nH]cnc34)cc(Br)c3cncn23)CC1` (stereo not shown) [Example 30, N-{1-[5-(4-Acetylpiperazin-1-yl)-8-bromoimidazo[1,5-a]pyridin-6-yl]ethyl}-9H-purin-6-amine bis(trifluoroacetate)], the pIC50 against PI3Kδ (p110δ/p85α) is greater than 7.30; in experiment [1], 6.30 to 7.00.

Consider `CC(=O)N1CCN(c2c(C(C)Nc3ncnc4[nH]cnc34)cc(C#N)c3cncn23)CC1` (stereo not shown) [Example 31, 5-(4-Acetylpiperazin-1-yl)-6-[1-(9H-purin-6-ylamino)ethyl]imidazo[1,5-a]pyridine-8-carbonitrile bis(trifluoroacetate)], for which the pIC50 against PI3Kδ (p110δ/p85α) was 6.12 to 6.70; in experiment [1], less than 5.52.

With `CC(=O)N1CCN(c2c(C(C)Nc3ncnc4[nH]cnc34)cc(C)c3cncn23)CC1` (stereo not shown) [Example 32, N-{1-[5-(4-Acetylpiperazin-1-yl)-8-methylimidazo[1,5-a]pyridin-6-yl]ethyl}-9H-purin-6-amine bis(trifluoroacetate)], the pIC50 at PI3Kδ (p110δ/p85α) is greater than 7.30; in experiment [1], less than 5.52.
